# Results: ChEMBL document CHEMBL1201862, “PubChem BioAssay data set” (2004)
# Active and inactive are the calls of the source.
# How the values were obtained:
# Exodeoxyribonuclease V = target: T1, Exodeoxyribonuclease V (Escherichia coli (strain K12), UniProt P04993+P07648+P08394); assay: E. coli RecBCD inhibitors, dose response, counter-screen for AddAB inhibitor project, absorbance, V66 E. coli, mutant T4 phage (AID 492957); assay type: functional, cell-based, Escherichia coli str. K-12 substr. MG1655
# T1 sequence (P04993 whole entry): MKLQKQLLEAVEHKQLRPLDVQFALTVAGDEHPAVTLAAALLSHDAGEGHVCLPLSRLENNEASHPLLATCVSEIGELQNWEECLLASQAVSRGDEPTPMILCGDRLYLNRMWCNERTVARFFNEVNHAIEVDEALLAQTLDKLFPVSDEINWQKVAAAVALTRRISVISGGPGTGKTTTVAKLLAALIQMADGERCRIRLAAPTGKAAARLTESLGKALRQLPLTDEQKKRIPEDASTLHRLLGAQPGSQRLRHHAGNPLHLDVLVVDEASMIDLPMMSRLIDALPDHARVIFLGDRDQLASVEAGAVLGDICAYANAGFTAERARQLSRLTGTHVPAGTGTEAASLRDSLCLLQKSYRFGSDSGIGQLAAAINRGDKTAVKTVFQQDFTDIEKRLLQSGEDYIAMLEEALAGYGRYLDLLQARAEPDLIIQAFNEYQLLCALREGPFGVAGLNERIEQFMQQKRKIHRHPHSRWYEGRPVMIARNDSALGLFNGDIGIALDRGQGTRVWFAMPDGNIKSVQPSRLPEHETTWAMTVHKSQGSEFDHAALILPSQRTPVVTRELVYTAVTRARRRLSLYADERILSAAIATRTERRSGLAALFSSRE
# T1 sequence (P07648 whole entry): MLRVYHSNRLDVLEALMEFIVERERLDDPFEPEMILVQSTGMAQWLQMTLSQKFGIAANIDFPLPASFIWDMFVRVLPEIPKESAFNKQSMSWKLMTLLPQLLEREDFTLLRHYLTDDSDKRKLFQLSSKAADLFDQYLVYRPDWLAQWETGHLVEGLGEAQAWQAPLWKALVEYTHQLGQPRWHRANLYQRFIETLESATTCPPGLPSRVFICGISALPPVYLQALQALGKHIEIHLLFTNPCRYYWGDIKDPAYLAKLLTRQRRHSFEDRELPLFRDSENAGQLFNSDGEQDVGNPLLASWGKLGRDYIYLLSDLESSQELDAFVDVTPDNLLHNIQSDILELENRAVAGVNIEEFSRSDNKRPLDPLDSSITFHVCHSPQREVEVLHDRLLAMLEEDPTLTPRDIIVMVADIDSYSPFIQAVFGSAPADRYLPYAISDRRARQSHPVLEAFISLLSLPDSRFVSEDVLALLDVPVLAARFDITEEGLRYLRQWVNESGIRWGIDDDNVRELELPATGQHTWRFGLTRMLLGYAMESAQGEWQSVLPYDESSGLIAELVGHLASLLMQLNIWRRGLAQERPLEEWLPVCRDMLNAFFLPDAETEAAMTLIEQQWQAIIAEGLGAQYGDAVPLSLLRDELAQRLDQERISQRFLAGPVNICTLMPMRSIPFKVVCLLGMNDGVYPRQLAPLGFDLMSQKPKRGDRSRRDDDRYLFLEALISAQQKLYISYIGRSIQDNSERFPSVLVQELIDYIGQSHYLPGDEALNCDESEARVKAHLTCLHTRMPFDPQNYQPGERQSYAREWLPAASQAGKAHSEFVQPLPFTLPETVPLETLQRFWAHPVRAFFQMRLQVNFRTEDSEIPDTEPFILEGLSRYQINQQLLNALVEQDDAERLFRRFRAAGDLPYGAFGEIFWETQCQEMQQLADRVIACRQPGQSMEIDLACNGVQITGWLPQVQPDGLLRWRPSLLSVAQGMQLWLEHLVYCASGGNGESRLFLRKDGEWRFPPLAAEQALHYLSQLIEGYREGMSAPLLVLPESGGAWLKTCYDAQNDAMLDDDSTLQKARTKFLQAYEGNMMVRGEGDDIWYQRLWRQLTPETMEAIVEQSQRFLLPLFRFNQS
# T1 sequence (P08394 whole entry): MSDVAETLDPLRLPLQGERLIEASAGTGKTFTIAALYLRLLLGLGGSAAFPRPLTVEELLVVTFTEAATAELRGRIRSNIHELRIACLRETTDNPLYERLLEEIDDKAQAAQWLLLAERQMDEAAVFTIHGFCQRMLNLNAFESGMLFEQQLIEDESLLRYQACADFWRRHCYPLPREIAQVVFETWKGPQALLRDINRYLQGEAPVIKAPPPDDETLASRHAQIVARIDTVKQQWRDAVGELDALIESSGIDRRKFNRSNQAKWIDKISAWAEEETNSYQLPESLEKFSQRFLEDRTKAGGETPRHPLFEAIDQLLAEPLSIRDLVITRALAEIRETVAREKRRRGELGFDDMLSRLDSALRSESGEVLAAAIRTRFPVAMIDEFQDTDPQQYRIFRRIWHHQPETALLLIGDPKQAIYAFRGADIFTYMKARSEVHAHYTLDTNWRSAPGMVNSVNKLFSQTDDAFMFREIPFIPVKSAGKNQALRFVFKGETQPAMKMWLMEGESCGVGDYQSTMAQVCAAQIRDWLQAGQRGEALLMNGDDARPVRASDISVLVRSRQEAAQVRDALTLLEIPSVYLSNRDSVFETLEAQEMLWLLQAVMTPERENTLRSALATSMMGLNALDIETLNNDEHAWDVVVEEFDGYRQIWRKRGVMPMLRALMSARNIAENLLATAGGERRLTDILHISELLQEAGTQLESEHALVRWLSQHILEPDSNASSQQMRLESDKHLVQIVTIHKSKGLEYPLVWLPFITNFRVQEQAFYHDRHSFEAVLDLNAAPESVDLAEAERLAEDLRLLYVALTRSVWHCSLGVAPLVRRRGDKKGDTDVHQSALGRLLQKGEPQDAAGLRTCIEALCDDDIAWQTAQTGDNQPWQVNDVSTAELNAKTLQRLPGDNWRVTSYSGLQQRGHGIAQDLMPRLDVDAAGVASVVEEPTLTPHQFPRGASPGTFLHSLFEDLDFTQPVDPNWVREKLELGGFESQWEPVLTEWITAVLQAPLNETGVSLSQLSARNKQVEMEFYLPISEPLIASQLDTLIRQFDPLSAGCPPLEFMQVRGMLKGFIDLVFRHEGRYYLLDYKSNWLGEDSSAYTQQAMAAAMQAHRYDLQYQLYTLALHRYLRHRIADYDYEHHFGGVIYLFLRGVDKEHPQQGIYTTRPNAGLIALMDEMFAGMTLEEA
# HEK293 = assay: SAR Analysis of small molecule inhibitors of T-cell specific antigen receptor-induced NF-kB activation in a HEK-293T cell line using a luminescence assay. [Related pubchem assays (depositor defined):AID435003, AID435012, AID489026]; assay type: functional, cell-based; conditions: Homo sapiens
# cells = assay type: functional
# Fatty acid synthase = Fatty acid synthase (Homo sapiens, UniProt P49327); assay: FAS thioesterase domain inhibitors, dose response, biochemical, kinetic fluorescence intensity (AID 624326); assay type: functional;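 note: rate of fluorescence rise from hydrolysis of a fluorogenic O-methyl fluorescein ester substrate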
# Chain of Fatty acid synthase (P49327 whole entry, the tested form may be a part): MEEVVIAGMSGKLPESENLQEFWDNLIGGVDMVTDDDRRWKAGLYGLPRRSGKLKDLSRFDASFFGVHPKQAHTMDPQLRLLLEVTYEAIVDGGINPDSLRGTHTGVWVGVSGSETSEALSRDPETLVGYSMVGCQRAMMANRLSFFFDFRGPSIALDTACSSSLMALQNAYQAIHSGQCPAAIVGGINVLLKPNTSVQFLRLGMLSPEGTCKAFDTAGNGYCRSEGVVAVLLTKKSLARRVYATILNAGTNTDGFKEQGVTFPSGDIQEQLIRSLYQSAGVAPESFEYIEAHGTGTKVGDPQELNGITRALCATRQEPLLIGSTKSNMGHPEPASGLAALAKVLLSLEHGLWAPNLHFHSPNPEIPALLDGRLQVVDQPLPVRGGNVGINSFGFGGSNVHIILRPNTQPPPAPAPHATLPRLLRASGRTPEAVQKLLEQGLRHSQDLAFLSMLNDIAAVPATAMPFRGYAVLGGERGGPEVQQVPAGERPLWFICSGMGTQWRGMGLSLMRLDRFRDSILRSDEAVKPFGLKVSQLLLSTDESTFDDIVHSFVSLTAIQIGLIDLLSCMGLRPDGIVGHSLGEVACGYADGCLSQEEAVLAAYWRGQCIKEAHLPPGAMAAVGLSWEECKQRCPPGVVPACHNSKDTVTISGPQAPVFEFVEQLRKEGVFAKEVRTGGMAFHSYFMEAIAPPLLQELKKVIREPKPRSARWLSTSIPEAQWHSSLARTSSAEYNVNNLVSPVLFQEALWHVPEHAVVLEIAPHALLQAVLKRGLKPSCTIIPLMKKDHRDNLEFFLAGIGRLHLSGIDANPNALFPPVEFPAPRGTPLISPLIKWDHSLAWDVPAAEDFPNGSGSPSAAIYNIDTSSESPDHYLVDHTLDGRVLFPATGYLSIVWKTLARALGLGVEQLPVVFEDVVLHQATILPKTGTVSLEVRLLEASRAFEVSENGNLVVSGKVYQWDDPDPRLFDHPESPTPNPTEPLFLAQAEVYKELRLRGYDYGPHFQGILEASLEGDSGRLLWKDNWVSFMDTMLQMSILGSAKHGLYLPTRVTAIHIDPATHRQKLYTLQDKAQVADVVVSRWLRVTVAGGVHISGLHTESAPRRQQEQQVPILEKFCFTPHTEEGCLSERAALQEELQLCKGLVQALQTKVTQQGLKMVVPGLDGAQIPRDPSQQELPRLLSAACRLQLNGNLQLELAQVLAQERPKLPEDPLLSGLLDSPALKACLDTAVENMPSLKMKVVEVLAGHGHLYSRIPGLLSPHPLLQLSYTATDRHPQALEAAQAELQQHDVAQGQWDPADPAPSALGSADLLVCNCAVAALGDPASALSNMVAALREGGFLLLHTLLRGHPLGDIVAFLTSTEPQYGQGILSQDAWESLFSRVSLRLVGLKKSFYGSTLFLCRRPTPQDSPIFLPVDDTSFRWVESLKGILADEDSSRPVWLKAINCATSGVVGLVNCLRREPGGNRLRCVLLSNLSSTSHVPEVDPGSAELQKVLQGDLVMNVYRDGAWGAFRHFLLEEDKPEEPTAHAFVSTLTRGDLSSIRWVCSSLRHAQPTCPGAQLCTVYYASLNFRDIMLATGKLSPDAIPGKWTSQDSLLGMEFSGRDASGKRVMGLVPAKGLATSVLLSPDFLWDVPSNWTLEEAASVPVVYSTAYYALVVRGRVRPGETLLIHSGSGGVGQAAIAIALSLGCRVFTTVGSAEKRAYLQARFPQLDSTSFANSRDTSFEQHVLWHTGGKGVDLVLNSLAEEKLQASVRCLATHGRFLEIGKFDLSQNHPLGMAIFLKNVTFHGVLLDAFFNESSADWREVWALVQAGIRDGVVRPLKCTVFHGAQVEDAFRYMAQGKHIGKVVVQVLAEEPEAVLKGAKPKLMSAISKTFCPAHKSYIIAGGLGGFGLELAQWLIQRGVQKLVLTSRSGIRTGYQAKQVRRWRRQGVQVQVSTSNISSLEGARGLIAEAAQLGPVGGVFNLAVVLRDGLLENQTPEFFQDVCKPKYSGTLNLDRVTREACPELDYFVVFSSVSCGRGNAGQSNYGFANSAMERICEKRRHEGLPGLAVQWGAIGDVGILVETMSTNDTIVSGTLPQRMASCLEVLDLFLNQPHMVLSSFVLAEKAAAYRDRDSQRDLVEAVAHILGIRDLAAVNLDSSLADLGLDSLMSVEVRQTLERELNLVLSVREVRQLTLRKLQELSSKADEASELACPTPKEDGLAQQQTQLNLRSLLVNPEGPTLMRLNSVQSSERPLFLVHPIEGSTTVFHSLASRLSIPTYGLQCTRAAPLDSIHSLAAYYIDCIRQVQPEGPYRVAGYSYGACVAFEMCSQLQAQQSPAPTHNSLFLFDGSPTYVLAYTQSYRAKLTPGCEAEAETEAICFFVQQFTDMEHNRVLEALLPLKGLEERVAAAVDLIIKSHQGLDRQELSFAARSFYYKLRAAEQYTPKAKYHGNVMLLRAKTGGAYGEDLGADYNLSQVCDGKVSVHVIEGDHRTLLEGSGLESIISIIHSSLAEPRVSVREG
Structure (SMILES),IC50 (Exodeoxyribonuclease V),IC50 (cells),other results
CCCC(=O)NC(c1ccccc1OC)c1ccc2cccnc2c1O (stereo unspecified),> 119 µM (inactive),,IC50 (HEK293): 12.5 µM (active)
COC(CNC(=O)c1ccc2c3c(onc13)-c1ccccc1C2=O)OC,,41.5 µM (active),
Nc1ccc2c(c1)C(=O)C(=O)c1ccccc1-2,,7.1 µM (active),
Cc1ccc2nc(/C(C#N)=C\c3ccc([N+](=O)[O-])o3)[nH]c2c1,> 119 µM (inactive),,
COc1cc(-c2ccc(Nc3ccccc3C(=O)O)c(OC)c2)ccc1Nc1ccccc1C(=O)O,,,IC50 (Fatty acid synthase): 6.68 µM (active)
